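48-hour exposure; five concentrations; linearly interpolated endpoints. GI50: concentration for 50% inhibition of growth.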 Active and inactive are the calls of the source. Cut-off read from the data, not from the text of the source: active = GI50 up to about 1.1 µM and inactive = higher.
Columns and labels:
Test in all cases: DTP human tumour cell line panel, 48 h
[1] = system: KM12
[2] = system: OVCAR-3
[3] = system: BT-549
[4] = system: RXF 393
[5] = system: T47D
[6] = system: HCT-116
[7] = system: M14
[8] = system: HCC 2998
[9] = system: HOP-62
[10] = system: COLO 205
[11] = system: MDA-MB-435
[12] = system: OVCAR-4
[13] = system: K562
[14] = system: SK-MEL-28
[15] = system: Hs-578T
[16] = system: IGROV-1
[17] = system: 786-0
[18] = system: EKVX
[19] = system: LOX IMVI
[20] = system: TK-10

Measured: GI50

C=CCc1cccc2cc(C(=O)NC3CCCCC3)c(=N)oc12
inactive: [1] 16.9 µM | [2] 14.1 µM | [3] 33.7 µM | [4] 31.4 µM | [5] 11.4 µM | [6] 13.9 µM | [7] 18 µM | [8] 16.3 µM | [9] 18.9 µM | [10] 16.7 µM | [11] 20.7 µM | [12] 20.9 µM | [13] > 100 µM | [14] 17.3 µM | [15] 11.3 µM | [16] > 100 µM | [17] 14.5 µM | [18] > 100 µM | [19] 15.4 µM

O=C(C/C(=N/O)c1cc(-c2ccccc2)no1)c1ccccc1
inactive: [1] > 100 µM | [2] 23.2 µM | [3] 28.7 µM | [4] 19.8 µM | [5] 35.8 µM | [6] 20.4 µM | [7] 85.3 µM | [8] > 100 µM | [9] 23.8 µM | [10] > 100 µM | [11] > 100 µM | [12] 26.5 µM | [20] 35.1 µM | [13] 41.3 µM | [14] > 100 µM | [15] 26.2 µM | [16] 30 µM | [17] 22.1 µM | [18] 33.8 µM | [19] 36.4 µM

Cc1cccc(NC(=S)Nc2ccc([N+](=O)[O-])cc2)n1
inactive: [1] > 100 µM | [3] > 100 µM | [4] > 100 µM | [5] > 100 µM | [6] > 100 µM | [7] > 100 µM | [8] > 100 µM | [9] > 100 µM | [10] > 100 µM | [11] > 100 µM | [12] > 100 µM | [20] > 100 µM | [13] > 100 µM | [14] > 100 µM | [15] > 100 µM | [16] > 100 µM | [17] > 100 µM | [18] > 100 µM | [19] > 100 µM

CCN(CC)c1ccc2cc(C(=O)Nc3cccc4ccccc34)c(=N)oc2c1
inactive: [1] > 100 µM | [3] 24 µM | [4] 61 µM | [5] > 100 µM | [6] > 100 µM | [7] 38.8 µM | [8] > 100 µM | [9] > 10 µM | [10] > 100 µM | [11] 91.8 µM | [12] > 100 µM | [20] > 100 µM | [13] > 100 µM | [14] 58.5 µM | [15] 82 µM | [16] > 100 µM | [17] 16.8 µM | [18] > 100 µM | [19] > 100 µM

NS(=O)(=O)c1nnc(NC(=O)Nc2ccc(Cl)c(Cl)c2)s1
inactive: [1] 26.9 µM | [2] 24.9 µM | [3] 20 µM | [4] 16.7 µM | [5] 19.9 µM | [6] 19.5 µM | [7] 16.8 µM | [8] 18.7 µM | [9] 17.8 µM | [10] 13.9 µM | [11] 20.3 µM | [12] 30.6 µM | [20] 20.6 µM | [13] 31.3 µM | [14] 17.1 µM | [15] 29.2 µM | [17] 24.3 µM | [18] 28.8 µM | [19] 18.2 µM

Source: ChEMBL document CHEMBL1201862, “PubChem BioAssay data set” (2004)
